Results published in patent publication US7338454B2, “Breath test” (Children, Youth and Women's Health Service Incorporated, priority 2001, dated 2008).
Values joined by “and” are separate entries in the source; they are usually repeats but may differ in a detail not shown here. Identical values can stand only once. Marks after values point to notes of the source that are not given here.

Tests used:
Dark Agouti rats [1] = test: Food intake of 5-FU treated rats; assay type: in vivo, rat; conditions: 5-FU 150 mg/kg i.p.
Procedure: (§1) Ten female Dark Agouti rats were injected intraperitoneally with 150 mg/kg 5-FU; three rats there killed at 48, 72 and four at 96 hours after 5-FU treatment. Two control rats were not treated with 5-FU. Sucrose breath tests (SBT) were undertaken before chemotherapy and prior to sacrifice by measuring released ^13CO2 in the breath after gavages of ^13C-sucrose as an indicator of small intestine (SI) sucrase function. Tissue samples were collected from SI for sucrase enzyme determinations and histological assessment from the jejunum and ileum.

sucrase [2] = test: Ileal sucrase activity in 5-FU treated rats; assay type: in vivo, rat; conditions: 5-FU 150 mg/kg i.p., normal level 54.9±0.9
Procedure: as §1

small intestine [3] = test: Histological severity scores of jejunum and ileum in 5-FU treated rats; assay type: in vivo, rat; conditions: 5-FU 150 mg/kg i.p.
Procedure: as §1

sucrase [4] = molecular target: T1, sucrase (Homo sapiens, UniProt P14410); test: 13C-Sucrose Breath Test in healthy adults, with and without sucrase inhibitor; assay type: in vivo; conditions: two human subjects, respectively; 200 mg acarbose with 20 g sucrose vs 20 g sucrose alone
T1 construct: from tissue; host or cells: small-intestinal brush border of living human volunteers (in vivo breath test; no isolated protein)
Procedure: Breath samples were analysed for ^13CO2 by an isotope ratio mass spectrometer (IRMS; Europa Scientific, ABCA 20/20, Crewe, United Kingdom) equipped with a V410 data collection system. Isotope ratio mass spectrometric analysis of breath samples expresses results as a delta value, representing the ratio of ^13C/^12C in the sample in parts per thousand relative to the calcium carbonate international primary standard, Pee-Dee Belemnite limestone (South Carolina, USA)(Renes et al., (1997). Baseline levels of breath ^13CO2 were determined by averaging the delta of breath samples collected prior to the ingestion of sucrose. Results from the ^13C-Sucrose Breath Test were then calculated as the change in breath ^13CO2 levels from baseline (i.e. delta over baseline: DOB) for each time point of breath collection over the period of interval sampling. The area under the “change in breath ^13CO2 level over time” curve (AUC) was calculated using the trapezoidal rule: AUC=Σ[(DOBt1+DOBt2)/2]×(t2−t1)
The study recruited 10 healthy, non-smoking adults (male n=2; female n=8) aged 19-37 years old (mean age 22+2 years) with mean weight 65.2+3 kg. Subjects had no known history of gastrointestinal or liver disease. Antibiotic and non-steroidal antiinflammatory drug use in the three weeks preceding the experiment and acute alcohol consumption the day preceding the experiment warranted exclusion. […]

Dark Agouti rats [5] = test: Food intake, body weight, villus height and overall mucosal damage in MTX-treated rats with or without folinate; assay type: in vivo, rat
Procedure: (§2) Sixteen female SPF Dark Agouti rats were housed in individual metabolism cages and were given ad libitum access to a semi-synthetic casein based diet and fresh water. Food and water intakes and body weights were measured daily. They were given two injections of MTX (1.5 mg/kg i/m) at 0 and 24 hrs. Calcium folinate was added to the drinking water of eight rats (10 mg/m^2) 2 hours prior to, and during MTX injections. Eight rats were given MTX but no folinate treatment, and four control rats were given no treatments. Four rats from each treatment group were killed at 72 hours, and the other four at 120 hours, after initial chemotherapy. SBT were undertaken before chemotherapy, and at 52 and 100 hours after initial chemotherapy.
(§3) At the appropriate times, rats were anaesthetised with halothane, cardiac blood samples collected and the animals were killed by cervical dislocation. The small intestine was emptied, flushed with chilled saline and weighed. Samples were collected into formalin from each of the proximal jejunum for histological assessment, and from the jejunum into liquid nitrogen for sucrase and myeloperoxidase determinations.

sucrase [6] = test: Jejunal sucrase activity in MTX-treated rats with or without folinate; assay type: in vivo, rat; conditions: MTX-treated rats with folinate vs non-folinate
Procedure: as §2, §3
Sucrase activity was measured using a modification of the glucose oxidase method for estimation of the […] glucose concentration (Dahlqvist, 1968).

Dark Agouti rats [7] = test: Sucrose breath test in MTX-treated rats with or without folinate; assay type: in vivo, rat
Procedure: as §2
Breath ^13CO2 levels are indicative of sucrase activity in the small intestine. SBTs were undertaken before and after chemotherapy. • Rats were fasted for 3 hrs and placed in the collection chambers for 15 minutes to acclimatise and baseline samples collected into exetainers. • Rats were gavaged with 1.0 ml of a sucrose solution containing 1 g/ml of naturally enriched ^13C-sucrose. • Breath samples were collected at 30, 60 and 90 minute time intervals after gavage and analysed for ^13CO2 by isotope ratio mass spectrometry (PDZ-Europa ABCA).

sucrase [8] = molecular target: T1, sucrase; test: Breath hydrogen analysis in healthy adults, with and without sucrase inhibitor; assay type: in vivo; conditions: 20 g sucrose with or without 200 mg acarbose, 180 min
Procedure: Subjects ingested 20 g, 40 g and 60 g sucrose (AnalaR, BDH, MERCK Pty Ltd, Victoria, Australia) dissolved in 100 ml water on separate occasions. The order of these breath tests was random for each subject. To determine whether the breath test was capable of detecting inhibition of sucrase activity, two volunteers ingested 2×100 mg sucrase inhibitor (Acarbose tablets, Glucobay™) crushed and dissolved in 30 ml water, immediately followed by 20 g sucrose dissolved in 70 ml water.
All subjects were required to fast for a minimum of eight hours prior to testing and for the three hour duration of the test period. Small amounts of water were permitted 30 minutes after ingestion of the test solution. Subjects provided two baseline breath samples immediately prior to ingestion of the test solution. Following ingestion of the test solution, breath samples were collected every 15 minutes for three hours. Physical activity was avoided during the three hour experimental period, particularly at breath collection time points. End-expiratory breath samples were provided by exhaling through a straw into 5×10 ml glass tubes (Exetainer, Labco Limited, High Wycombe, England). […]
Breath samples provided by human subjects were analysed for hydrogen content by gas chromatography (Quintron, Model DP Microlyzer, E.F. Brewer Company, Wisconsin). […]

myeloperoxidase = test: Jejunal myeloperoxidase (MPO) in MTX-treated rats; assay type: in vivo, rat; conditions: MTX treated rats not given folinate, 72 hours
Procedure: as §2, §3

small intestine [9] = test: Histological severity score of small intestinal damage, methotrexate-treated rats; assay type: in vivo, rat; conditions: rats treated with methotrexate seven days earlier, n=4; median; maximum score 33
Description: Rats were sacrificed in the afternoon of day 7 by cervical dislocation under CO2 anaesthesia. The abdomen was opened via a midline incision and the liver and gut excised. The gut contents were flushed thoroughly with phosphate buffered saline, pH 6.0. The small intestine was placed on an ice-cold slab and divided into three sections: the duodenum comprising the intestine from the gastro-duodenal junction to the ligament of Treitz; the remaining intestine from the ligament of Treitz to the caecum was divided in half to provide jejunum and ileum of equal length. A 4 cm portion was excised from each intestinal section and was rapidly frozen in liquid nitrogen, before being transferred to a −70° C. freezer until determination of sucrase activity. A further 1 cm of each section was excised and fixed in methacarn fixative for two hours, transferred to 70% ethanol for 48 hours, and embedded in paraffin wax for histological analysis (Howarth et al., (1996).
Tissue samples in paraffin wax were sectioned transversely at 21 μm, stained with haematoxylin and eosin to expose the structure of the intestinal mucosa, and examined by an under a light microscope (Howarth et al., 1996). A semi-quantitative histological assessment of intestinal damage was utilised to obtain an overall score of damage severity in the three sections of the small intestine. A severity score ranging from 0-3 was allocated for 11 histological features (table 1), such that the maximum severity score (33) indicated the most severe damage (Howarth et al., 1996).
Histological severity scores were calculated and presented as median and range. The unpaired non-parametric Mann-Whitney two-sample test was employed to compare the severity scores of the methotrexate-treated rats with controls for each section of intestine.

sucrase [10] = test: In vitro assay of sucrase activity in duodenum, jejunum and ileum of methotrexate-treated rats; assay type: in vivo, rat; conditions: Day 7 after methotrexate treatment, vs control, p<0.0005
Description: Rats were sacrificed in the afternoon of day 7 by cervical dislocation under CO2 anaesthesia. The abdomen was opened via a midline incision and the liver and gut excised. The gut contents were flushed thoroughly with phosphate buffered saline, pH 6.0. The small intestine was placed on an ice-cold slab and divided into three sections: the duodenum comprising the intestine from the gastro-duodenal junction to the ligament of Treitz; the remaining intestine from the ligament of Treitz to the caecum was divided in half to provide jejunum and ileum of equal length. […]
the method of Dahlqvist (1968). […] Enzyme activity was then related to the protein concentration of the enzyme preparation as determined by the method of Bradford (1976), in which a standard curve of bovine serum albumin concentration is used to ascertain the protein content of the sample. As a result, the sucrase activity representative of duodenal, jejunal and ileal brush border membrane was determined as μ mol of substrate hydrolysed at 37° C. at pH 6.0/mg protein/hour.
Sucrase activity was expressed as specific activity relative to protein (μmol substrate hydrolysed at 37° C. at pH 6.0/mg protein/hour) and presented as mean±SEM. […] Significant difference in sucrase activity in the duodenum, jejunum and ileum of methotrexate-treated compared to control rats was detected using an unpaired t-test.

T1 sequence (P14410 whole entry): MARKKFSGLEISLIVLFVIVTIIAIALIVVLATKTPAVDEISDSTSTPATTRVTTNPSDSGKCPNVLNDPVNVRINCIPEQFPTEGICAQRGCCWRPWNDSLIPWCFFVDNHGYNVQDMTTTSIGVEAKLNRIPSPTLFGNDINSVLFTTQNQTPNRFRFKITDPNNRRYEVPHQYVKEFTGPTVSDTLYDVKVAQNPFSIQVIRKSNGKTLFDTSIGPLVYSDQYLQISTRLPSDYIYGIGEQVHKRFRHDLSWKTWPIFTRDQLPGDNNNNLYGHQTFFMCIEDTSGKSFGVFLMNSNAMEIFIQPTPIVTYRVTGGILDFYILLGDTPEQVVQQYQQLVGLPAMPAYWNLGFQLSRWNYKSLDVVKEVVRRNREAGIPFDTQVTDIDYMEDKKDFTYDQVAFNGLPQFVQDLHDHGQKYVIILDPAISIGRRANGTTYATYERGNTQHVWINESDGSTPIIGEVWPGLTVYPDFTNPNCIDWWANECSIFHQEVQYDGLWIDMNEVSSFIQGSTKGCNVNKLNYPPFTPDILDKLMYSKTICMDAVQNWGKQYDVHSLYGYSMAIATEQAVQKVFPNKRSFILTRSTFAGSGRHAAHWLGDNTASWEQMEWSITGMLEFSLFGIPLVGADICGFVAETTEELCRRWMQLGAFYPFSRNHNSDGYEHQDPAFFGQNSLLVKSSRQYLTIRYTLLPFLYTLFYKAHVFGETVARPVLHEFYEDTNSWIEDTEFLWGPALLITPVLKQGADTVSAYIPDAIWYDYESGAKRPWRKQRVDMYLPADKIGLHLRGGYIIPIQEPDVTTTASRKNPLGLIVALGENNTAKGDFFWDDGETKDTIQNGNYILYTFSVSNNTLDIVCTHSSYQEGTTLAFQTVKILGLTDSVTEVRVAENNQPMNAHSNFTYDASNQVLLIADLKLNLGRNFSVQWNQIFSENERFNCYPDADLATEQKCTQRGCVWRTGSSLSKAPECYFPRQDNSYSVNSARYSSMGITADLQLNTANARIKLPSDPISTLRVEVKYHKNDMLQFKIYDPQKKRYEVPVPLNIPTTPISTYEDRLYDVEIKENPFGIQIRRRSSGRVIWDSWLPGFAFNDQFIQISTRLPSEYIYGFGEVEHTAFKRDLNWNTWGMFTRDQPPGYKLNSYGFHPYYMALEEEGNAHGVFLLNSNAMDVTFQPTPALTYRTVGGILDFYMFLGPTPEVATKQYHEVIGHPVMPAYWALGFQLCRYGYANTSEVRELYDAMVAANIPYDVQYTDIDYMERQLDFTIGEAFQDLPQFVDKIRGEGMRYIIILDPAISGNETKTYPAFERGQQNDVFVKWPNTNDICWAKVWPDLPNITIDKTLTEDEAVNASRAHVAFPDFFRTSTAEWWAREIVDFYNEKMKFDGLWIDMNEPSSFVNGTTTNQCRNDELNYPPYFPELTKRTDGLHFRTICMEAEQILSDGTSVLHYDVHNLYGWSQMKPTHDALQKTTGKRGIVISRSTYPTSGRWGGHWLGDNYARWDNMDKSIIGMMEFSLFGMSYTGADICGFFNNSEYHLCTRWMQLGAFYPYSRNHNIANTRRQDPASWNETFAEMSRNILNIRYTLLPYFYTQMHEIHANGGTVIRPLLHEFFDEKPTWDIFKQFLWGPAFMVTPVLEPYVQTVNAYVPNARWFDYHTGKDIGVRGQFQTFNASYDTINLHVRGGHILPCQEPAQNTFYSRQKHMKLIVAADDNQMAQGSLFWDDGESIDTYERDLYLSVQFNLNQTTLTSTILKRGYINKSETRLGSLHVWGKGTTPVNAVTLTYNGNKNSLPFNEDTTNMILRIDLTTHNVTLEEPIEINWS

Question: How did the “Food intake 72 hours after injection” value (Dark Agouti rats [1]) turn out when `O=c1[nH]cc(F)c(=O)[nH]1` [5-FU, 5-fluorouracil] was run?
Answer: 4.7 ± 0.7 g

Question: What about the “Food intake 96 hours after injection” value (Dark Agouti rats [1]) of the same compound?
Answer: 6.4 ± 0.8 g

Question: And the “Food intake 24 hours after injection” value (Dark Agouti rats [1]; before treatment 11.1±0.3 g/rat/day)?
Answer: 5.3 ± 0.4 g

Question: And the “Ileal sucrase activity at 72 hours” value (sucrase [2])?
Answer: 7.52±0.82 nmol glucose/min/cm

Question: What about the “Histological severity score, ileum, 72 hours” value (small intestine [3]) of the same compound?
Answer: 12

Question: And the “Histological severity score, ileum, 96 hours” value (small intestine [3])?
Answer: 8

Question: What about the “Histological severity score, jejunum, 72 hours” value (small intestine [3]) of the same compound?
Answer: 8

Question: And the “Histological severity score, jejunum, 96 hours” value (small intestine [3])?
Answer: 5

Question: What about the “Histological severity score, ileum, 48 hours” value (small intestine [3]; median) of the same compound?
Answer: 17

Question: What about the “Histological severity score, jejunum, 48 hours” value (small intestine [3]; median) of the same compound?
Answer: 13

Question: `C[C@H]1O[C@H](O[C@H]2[C@H](O)[C@@H](O)[C@@H](O[C@H]3[C@H](O)[C@@H](O)C(O)O[C@@H]3CO)O[C@@H]2CO)[C@H](O)[C@@H](O)[C@@H]1N[C@H]1C=C(CO)[C@@H](O)[C@H](O)[C@H]1O` (stereo partly shown) [Acarbose] was tested. Which “Breath 13CO2 AUC diminished in the presence of the inhibitor” value (sucrase [4]) did it give?
Answer: 57% and 93%

Question: Which “Damage to the small intestinal mucosa by sucrase activity, MPO levels, histological changes and sucrose breath testing” value (Dark Agouti rats [5]; MTX-treated rats) does the source give for `Nc1nc(=O)c2c([nH]1)NCC(CNc1ccc(C(=O)N[C@@H](CCC(=O)[O-])C(=O)[O-])cc1)N2C=O.[Ca+2]` (stereo partly shown) [Calcium folinate] here?
Answer: totally prevented damage

Question: What about the “Villus heights (structural damage)” value (Dark Agouti rats [5]; MTX-treated rats, folinate administered orally) of the same compound?
Answer: structural damage was attenuated

Question: What about the Jejunal sucrase activity (sucrase [6]) of the same compound?
Answer: prevented the reduction in jejunal sucrase activity

Question: And the “Disruption to the sucrase activity by SBT, folinate vs no folinate” value (Dark Agouti rats [7]; MTX-treated rats, p<0.0012 at 52 hours, p<0.0136 at 100 hours)?
Answer: significant decrease in disruption to the sucrase activity

Question: And the “SBT result (breath 13CO2) 52 hrs after MTX treatment” value (Dark Agouti rats [7]; rats, MTX 1.5 mg/kg i/m at 0 and 24 hrs, calcium folinate 10 mg/m^2 in drinking water)?
Answer: attenuates mucosal damage

Question: `OC[C@H]1O[C@@](CO)(O[C@H]2O[C@H](CO)[C@@H](O)[C@H](O)[C@H]2O)[C@@H](O)[C@@H]1O` [Sucrose, sucrose] was tested. Which “Breath Hydrogen, Subject 1, maximum change from baseline” value (sucrase [8]) did it give?
Answer: 2 ppm

Question: What about the “Breath Hydrogen, Subject 2, maximum change from baseline” value (sucrase [8]) of the same compound?
Answer: 2 ppm

Question: How did the Body weights (Dark Agouti rats [5]; rats, MTX without folinate, after chemotherapy) turn out when `CN(Cc1cnc2nc(N)nc(N)c2n1)c1ccc(C(=O)N[C@@H](CCC(=O)O)C(=O)O)cc1` [methotrexate] was run?
Answer: decreased

Question: And the “Reduction in food intake” value (Dark Agouti rats [5]; rats, MTX without folinate, from t0 to 96 hours after treatment)?
Answer: 20%

Question: What about the “Myeloperoxidase (inflammatory marker), jejunum” value (myeloperoxidase) of the same compound?
Answer: significantly higher

Question: What about the “Severity score, duodenum” value (small intestine [9]) of the same compound?
Answer: 8 *

Question: And the “Severity score, ileum” value (small intestine [9])?
Answer: 6.5 *

Question: And the “Severity score, jejunum” value (small intestine [9])?
Answer: 10 *

Question: What about the “Sucrase activity in duodenum, jejunum and ileum” value (sucrase [10]) of the same compound?
Answer: significantly diminished in all three sections of intestine
